Data from publication PMC12265377, “CC48 a new CB2R agonist/FAAH inhibitor dual drug blocks gastric cancer progression and overcomes paclitaxel resistance” (Journal of Experimental & Clinical Cancer Research : CR, 2025).

Molecular target: T1, FAAH Human recombinant (Homo sapiens, UniProt O00519)
T1 construct: purchased Cayman Chemical
T1 sequence (O00519 1-579): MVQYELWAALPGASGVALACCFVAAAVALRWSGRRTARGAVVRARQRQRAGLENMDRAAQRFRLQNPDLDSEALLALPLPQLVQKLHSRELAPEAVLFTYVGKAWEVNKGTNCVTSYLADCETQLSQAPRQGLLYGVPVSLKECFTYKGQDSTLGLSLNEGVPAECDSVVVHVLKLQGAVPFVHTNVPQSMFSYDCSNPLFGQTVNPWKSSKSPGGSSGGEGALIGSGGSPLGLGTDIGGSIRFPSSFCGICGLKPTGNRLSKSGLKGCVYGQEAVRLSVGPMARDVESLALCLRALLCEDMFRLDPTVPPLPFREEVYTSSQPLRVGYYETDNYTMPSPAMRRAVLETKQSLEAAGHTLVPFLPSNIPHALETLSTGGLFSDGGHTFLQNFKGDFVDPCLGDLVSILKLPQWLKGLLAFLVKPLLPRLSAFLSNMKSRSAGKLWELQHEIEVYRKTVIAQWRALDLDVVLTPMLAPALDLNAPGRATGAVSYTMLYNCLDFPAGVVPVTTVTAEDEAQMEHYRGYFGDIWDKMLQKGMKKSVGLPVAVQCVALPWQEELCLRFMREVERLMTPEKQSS
Experiment: FAAH inhibition assay
Format: biochemical
Conditions: ± SEM, substrate AMC-AA 1 µM
Procedure: Assays were performed using 96-well black flat-bottom microtiter NBS plates (COSTAR flat black). […] The substrate (7-amino-4-methyl-2 H-1-benzopyran-2-one-5Z,8Z,11Z,14Z-eicosatetraen-amide, AMC-AA, 1µM final concentration) was then added, and the assay was incubated for 2 h at 37 °C in a TECAN infinite M1000Pro plate reader (Tecan, Männedorf, Switzerland) which measured the fluorescence from each well every 30 s (λex = 340 nm, λem = 450 nm), determining FAAH activity as relative fluorescence units (RFU). Control wells lacking the inhibitor and blank wells lacking both inhibitor and enzyme were used to calculate the percent inhibition for each tested compound. IC50 values were calculated via GraphPad Prism 5.0 (GraphPad Software, La Jolla, CA, USA) and are reported as mean ± SEM of at least three independent measurements performed in triplicate.

Question: Which results are given for COc1ccc(C(=O)c2c(C)n(CCN3CCOCC3)c3cc(I)ccc23)cc1 [AM630, reference compound]?
Answer: FAAHi IC50: low FAAH inhibition activity; IC50 (read-out: FAAHi IC50): 20 ± 2.8 µM
